Test results taken from paper PMC11345841, “Exploring 2-Sulfonylpyrimidine Warheads as Acrylamide Surrogates for Targeted Covalent Inhibition: A BTK Story” (Journal of Medicinal Chemistry, 2024).
Where two headings read alike, the source gives them in different places.

How the values were obtained:
Assay in all cases: KINOMEscan ScanTK
Type in all cases: binding
EGFR(E746-A750del) = target: T1, EGFR(E746-A750del) (Homo sapiens, UniProt P00533, DEL746-750)
T1 construct: purchased Eurofins DiscoverX KINOMEscan (scanTK)
T1 sequence (P00533 with tags, fused parts or gaps DEL746-750 limits assumed): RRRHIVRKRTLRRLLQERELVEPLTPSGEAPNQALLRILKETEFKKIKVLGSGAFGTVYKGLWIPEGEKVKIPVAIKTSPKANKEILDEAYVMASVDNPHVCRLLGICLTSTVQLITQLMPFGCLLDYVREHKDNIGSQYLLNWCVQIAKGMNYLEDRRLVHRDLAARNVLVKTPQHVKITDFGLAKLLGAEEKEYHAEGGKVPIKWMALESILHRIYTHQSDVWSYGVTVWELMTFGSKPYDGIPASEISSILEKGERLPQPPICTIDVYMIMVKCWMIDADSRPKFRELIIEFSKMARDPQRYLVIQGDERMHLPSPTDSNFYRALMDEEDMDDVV

EGFR(G719S) = target: T2, EGFR(G719S) (Homo sapiens, UniProt P00533, G719S)
T2 construct: purchased Eurofins DiscoverX KINOMEscan (scanTK)
T2 sequence (P00533 25-1210 G719S): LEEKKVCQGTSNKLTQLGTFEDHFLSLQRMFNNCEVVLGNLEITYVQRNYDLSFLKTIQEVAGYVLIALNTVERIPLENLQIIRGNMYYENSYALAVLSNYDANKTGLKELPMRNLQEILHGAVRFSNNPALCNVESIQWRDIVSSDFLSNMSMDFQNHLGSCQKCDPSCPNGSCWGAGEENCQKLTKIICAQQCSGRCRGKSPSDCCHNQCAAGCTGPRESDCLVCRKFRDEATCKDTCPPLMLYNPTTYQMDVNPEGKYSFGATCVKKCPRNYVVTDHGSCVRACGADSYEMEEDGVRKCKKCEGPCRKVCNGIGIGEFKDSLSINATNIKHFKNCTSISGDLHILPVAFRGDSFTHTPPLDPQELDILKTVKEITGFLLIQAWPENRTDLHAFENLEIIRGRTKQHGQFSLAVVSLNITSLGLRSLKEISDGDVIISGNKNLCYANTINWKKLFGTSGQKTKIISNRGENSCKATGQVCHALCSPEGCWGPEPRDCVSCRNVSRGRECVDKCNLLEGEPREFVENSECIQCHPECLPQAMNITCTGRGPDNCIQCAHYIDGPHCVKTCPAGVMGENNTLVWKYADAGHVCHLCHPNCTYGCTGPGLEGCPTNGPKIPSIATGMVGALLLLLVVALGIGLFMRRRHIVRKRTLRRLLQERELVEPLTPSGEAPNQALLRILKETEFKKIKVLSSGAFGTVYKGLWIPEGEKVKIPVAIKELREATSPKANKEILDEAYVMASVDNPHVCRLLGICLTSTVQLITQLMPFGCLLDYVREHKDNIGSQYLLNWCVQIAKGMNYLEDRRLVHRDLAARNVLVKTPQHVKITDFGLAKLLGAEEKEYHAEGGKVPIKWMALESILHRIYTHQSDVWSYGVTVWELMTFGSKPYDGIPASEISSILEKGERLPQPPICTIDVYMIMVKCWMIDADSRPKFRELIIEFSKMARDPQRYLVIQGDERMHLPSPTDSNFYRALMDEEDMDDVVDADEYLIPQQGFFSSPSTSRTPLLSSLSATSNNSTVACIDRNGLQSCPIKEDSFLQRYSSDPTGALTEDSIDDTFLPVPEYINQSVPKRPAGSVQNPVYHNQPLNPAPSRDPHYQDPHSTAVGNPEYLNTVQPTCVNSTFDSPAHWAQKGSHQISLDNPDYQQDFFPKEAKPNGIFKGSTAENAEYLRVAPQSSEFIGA

[1] = target: T3, ABL1(F317I)-nonphosphorylated (Homo sapiens, UniProt P00519, F317I)
T3 construct: purchased Eurofins DiscoverX KINOMEscan (scanTK)
T3 sequence (P00519 whole entry F317I): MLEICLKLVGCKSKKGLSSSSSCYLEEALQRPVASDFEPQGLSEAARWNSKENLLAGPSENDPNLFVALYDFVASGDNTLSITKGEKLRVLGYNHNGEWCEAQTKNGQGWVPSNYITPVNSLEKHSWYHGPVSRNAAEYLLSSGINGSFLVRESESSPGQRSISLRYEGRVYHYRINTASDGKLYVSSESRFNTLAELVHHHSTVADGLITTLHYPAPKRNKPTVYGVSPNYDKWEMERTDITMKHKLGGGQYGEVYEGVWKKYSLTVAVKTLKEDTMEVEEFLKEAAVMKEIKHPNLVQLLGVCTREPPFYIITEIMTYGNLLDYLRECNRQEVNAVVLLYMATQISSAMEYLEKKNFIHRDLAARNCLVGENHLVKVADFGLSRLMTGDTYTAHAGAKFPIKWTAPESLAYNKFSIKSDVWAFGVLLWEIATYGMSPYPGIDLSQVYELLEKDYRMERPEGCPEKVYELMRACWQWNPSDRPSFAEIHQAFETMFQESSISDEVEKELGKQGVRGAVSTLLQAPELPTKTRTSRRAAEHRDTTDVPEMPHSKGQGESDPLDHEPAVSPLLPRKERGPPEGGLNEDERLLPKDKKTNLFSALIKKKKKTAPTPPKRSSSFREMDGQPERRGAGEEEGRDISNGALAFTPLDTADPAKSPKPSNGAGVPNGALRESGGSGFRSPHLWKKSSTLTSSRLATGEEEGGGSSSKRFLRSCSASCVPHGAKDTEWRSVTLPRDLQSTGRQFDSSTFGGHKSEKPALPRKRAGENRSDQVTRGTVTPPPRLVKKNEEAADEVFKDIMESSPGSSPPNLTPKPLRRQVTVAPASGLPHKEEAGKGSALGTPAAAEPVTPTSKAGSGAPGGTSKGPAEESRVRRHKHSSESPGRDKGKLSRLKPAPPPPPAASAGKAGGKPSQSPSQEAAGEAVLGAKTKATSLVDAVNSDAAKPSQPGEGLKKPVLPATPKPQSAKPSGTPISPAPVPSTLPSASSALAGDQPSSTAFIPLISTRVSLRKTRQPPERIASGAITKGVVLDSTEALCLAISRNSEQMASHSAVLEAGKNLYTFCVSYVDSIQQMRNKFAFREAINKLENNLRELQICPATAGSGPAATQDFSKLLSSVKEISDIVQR

KIT-autoinhibited = target: T4, KIT-autoinhibited (Homo sapiens, UniProt P10721)
T4 construct: purchased Eurofins DiscoverX KINOMEscan (scanTK)
T4 sequence (P10721 26-976): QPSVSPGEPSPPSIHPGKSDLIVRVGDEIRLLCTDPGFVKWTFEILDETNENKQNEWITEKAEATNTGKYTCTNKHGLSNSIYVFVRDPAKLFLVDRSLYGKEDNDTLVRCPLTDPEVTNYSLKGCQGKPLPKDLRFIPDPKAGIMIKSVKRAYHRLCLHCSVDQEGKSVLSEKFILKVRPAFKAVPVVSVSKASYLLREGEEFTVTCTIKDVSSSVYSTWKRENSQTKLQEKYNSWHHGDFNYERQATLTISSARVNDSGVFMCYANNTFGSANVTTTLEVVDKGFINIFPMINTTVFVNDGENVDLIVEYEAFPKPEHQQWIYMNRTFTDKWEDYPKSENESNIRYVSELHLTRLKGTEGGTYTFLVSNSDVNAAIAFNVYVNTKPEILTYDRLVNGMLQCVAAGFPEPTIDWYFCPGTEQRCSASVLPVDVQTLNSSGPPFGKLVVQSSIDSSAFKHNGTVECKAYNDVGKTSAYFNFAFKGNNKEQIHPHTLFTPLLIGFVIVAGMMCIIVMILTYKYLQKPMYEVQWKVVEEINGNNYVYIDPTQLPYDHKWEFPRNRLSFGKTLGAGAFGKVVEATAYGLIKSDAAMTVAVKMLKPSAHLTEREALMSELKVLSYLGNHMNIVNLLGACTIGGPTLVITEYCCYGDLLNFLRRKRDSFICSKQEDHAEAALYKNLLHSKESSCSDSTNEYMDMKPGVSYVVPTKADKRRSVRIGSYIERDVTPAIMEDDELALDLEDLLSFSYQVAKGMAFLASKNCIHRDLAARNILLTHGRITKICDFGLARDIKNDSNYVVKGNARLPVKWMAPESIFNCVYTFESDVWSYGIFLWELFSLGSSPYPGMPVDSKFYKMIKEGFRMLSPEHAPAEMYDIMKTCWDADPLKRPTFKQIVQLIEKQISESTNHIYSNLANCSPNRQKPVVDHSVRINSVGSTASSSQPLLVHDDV

EPHB3 = target: T5, EPHB3 (Homo sapiens, UniProt P54753)
T5 construct: purchased Eurofins DiscoverX KINOMEscan (scanTK)
T5 sequence (P54753 34-998): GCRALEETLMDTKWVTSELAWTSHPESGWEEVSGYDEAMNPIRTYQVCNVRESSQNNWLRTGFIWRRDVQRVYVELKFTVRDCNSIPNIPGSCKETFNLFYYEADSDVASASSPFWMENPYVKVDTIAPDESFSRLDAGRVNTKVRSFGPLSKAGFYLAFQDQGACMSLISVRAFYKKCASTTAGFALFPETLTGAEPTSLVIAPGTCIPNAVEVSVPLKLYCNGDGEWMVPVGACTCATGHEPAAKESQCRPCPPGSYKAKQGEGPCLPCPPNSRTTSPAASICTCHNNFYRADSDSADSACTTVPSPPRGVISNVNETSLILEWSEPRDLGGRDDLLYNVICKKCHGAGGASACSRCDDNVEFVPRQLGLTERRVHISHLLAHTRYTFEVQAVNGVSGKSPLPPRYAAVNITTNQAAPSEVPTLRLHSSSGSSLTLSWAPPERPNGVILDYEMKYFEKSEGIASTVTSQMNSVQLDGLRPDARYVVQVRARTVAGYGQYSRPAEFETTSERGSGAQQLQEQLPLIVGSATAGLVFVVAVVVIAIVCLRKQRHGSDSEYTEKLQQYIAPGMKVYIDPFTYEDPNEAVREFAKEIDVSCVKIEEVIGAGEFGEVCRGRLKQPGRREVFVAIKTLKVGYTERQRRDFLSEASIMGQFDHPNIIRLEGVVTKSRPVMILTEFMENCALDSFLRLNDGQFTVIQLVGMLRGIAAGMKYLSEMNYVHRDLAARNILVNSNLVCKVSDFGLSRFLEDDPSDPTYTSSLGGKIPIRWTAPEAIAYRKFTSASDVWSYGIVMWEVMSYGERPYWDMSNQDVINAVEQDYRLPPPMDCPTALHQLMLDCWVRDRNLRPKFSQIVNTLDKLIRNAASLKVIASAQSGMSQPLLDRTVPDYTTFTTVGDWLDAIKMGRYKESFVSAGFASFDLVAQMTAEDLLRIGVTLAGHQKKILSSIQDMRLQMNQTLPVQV

FLT3(K663Q) = target: T6, FLT3(K663Q) (Homo sapiens, UniProt P36888, K663Q)
T6 construct: purchased Eurofins DiscoverX KINOMEscan (scanTK)
T6 sequence (P36888 27-993 K663Q): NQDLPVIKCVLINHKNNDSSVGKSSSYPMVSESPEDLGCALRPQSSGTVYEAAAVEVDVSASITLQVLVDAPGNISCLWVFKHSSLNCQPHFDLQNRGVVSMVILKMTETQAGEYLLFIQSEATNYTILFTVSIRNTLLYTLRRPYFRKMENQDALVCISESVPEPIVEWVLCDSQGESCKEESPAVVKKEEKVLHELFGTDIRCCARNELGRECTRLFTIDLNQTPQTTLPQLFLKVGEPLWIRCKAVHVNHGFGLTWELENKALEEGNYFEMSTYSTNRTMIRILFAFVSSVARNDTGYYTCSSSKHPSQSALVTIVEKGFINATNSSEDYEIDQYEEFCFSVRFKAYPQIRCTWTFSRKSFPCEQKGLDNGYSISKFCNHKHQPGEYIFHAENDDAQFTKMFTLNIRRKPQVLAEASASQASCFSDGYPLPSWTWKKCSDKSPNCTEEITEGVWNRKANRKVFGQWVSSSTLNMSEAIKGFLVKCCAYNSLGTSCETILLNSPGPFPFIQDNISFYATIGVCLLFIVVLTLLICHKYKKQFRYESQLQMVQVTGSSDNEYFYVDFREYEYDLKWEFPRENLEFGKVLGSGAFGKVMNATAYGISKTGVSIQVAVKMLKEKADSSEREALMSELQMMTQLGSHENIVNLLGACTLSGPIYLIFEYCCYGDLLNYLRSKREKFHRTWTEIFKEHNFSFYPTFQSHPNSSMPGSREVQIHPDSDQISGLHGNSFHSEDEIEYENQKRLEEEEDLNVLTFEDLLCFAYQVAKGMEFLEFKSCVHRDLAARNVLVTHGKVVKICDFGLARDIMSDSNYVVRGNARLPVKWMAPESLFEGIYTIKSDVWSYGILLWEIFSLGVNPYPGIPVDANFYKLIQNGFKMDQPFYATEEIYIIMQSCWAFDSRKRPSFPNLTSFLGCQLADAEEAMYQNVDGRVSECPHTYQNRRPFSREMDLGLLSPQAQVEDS

Row | Structure (SMILES) | difference in %Control from reference compound Ib at 1 µM (EGFR(E746-A750del); @1000nM) | remaining binding at 1 µM (EGFR(E746-A750del); @1000nM, read-out: %Control) | remaining binding at 1 µM (EGFR(E746-A750del); read-out: %Control @1000nM) | difference in %Control from compound Ib at 1 µM (EGFR(G719S); @1000nM) | remaining binding at 1 µM (EGFR(G719S); @1000nM, read-out: %Control) | remaining binding at 1 µM (EGFR(G719S); read-out: %Control @1000nM) | difference in %Control versus compound Ib at 1 µM ([1]; @1000nM) | remaining binding at 1 µM ([1]; @1000nM, read-out: %Control) | remaining binding at 1 µM ([1]; read-out: %Control @1000nM) | remaining binding at 1 µM (KIT-autoinhibited; @1000nM, read-out: %Control) | remaining binding at 1 µM (KIT-autoinhibited; read-out: %Control @1000nM) | difference in %Control versus compound Ib at 1 µM (EPHB3; @1000nM) | remaining binding at 1 µM (EPHB3; @1000nM, read-out: %Control) | remaining binding at 1 µM (EPHB3; read-out: %Control @1000nM) | difference in %Control from compound Ib at 1 µM (FLT3(K663Q); @1000nM) | remaining binding at 1 µM (FLT3(K663Q); @1000nM, read-out: %Control) | remaining binding at 1 µM (FLT3(K663Q); read-out: %Control @1000nM)
1 | Cc1cnc(S(C)(=O)=O)nc1N1CCCC(n2nc(-c3ccc(Oc4ccccc4)cc3)c3c(N)ncnc32)C1 (stereo not shown) [Compound 8a, 1-(1-(5-Methyl-2-(methylsulfonyl)pyrimidin-4-yl)piperidin-3-yl)-3-(4-phenoxyphenyl)-1H-pyrazolo[3,4-d]pyrimidin-4-amine] | 88% | 99% | 99% | 95.4% | 96% | 96% | 29% | 81% | 81% | 100% | 100% | 2% | 100% | 100% | 14% | 58% | 58%
2 | CCOC(=O)c1cnc(S(C)(=O)=O)nc1N1CCC[C@@H](n2nc(-c3ccc(Oc4ccccc4)cc3)c3c(N)ncnc32)C1 [Compound 8c, Ethyl (R)-4-(3-(4-Amino-3-(4-phenoxyphenyl)-1H-pyrazolo[3,4-d]pyrimidin-1-yl)piperidin-1-yl)-2-(methylsulfonyl)pyrimidine-5-carboxylate] | 89% | 100% | 100% | 93.4% | 94% | 94% | 46% | 98% | 98% | 94% | 94% | -20% | 78% | 78% | 56% | 100% | 100%
3 | COC(=O)c1cnc(S(C)(=O)=O)nc1N1CCCC(n2nc(-c3ccc(Oc4ccccc4)cc3)c3c(N)ncnc32)C1 (stereo not shown) [Compound 8b, Methyl 4-(3-(4-Amino-3-(4-phenoxyphenyl)-1H-pyrazolo[3,4-d]pyrimidin-1-yl)piperidin-1-yl)-2-(methylsulfonyl)pyrimidine-5-carboxylate] | 73% | 84% | 84% | 84.4% | 85% | 85% | 30% | 82% | 82% | 90% | 90% | -1% | 97% | 97% | 29% | 73% | 73%
4 | CNC(=O)c1cnc(S(C)(=O)=O)nc1N1CCCC(n2nc(-c3ccc(Oc4ccccc4)cc3)c3c(N)ncnc32)C1 (stereo not shown) [Compound 8d, 4-(3-(4-Amino-3-(4-phenoxyphenyl)-1H-pyrazolo[3,4-d]pyrimidin-1-yl)piperidin-1-yl)-N-methyl-2-(methylsulfonyl)pyrimidine-5-carboxamide] | 74% | 85% | 85% | 77.4% | 78% | 78% | 33% | 85% | 85% | 100% | 100% | 2% | 100% | 100% | 36% | 80% | 80%
5 | C=CC(=O)N1CCC[C@@H](n2nc(-c3ccc(Oc4ccccc4)cc3)c3c(N)ncnc32)C1 [Compound 1g, Ibrutinib, reference compound] | – | – | – | – | – | – | – | 52% | 52% | 88% | 88% | – | 98% | 98% | – | 44% | 44%
